In US9439910B2, “Fe(III)-pyrazine complex compounds for treatment and prophylaxis of iron-deficiency phenomena and iron-deficiency anaemia” (VIFOR (INTERNATIONAL) AG, priority 2012, dated 2016):

Test system: Male NMRI (SPF) mice
Test: Fe utilization in mouse model (low-iron diet, oral administration by stomach tube)
Type: in vivo
Conditions: for Utilization n 15 d: mice fed low-iron diet (approx. 5 ppm iron) approx. 3 weeks, 2 mg iron/kg body weight/day by stomach tube, days 1-5 and 8-12, utilization on day 15 calculated from hemoglobin increase and body weight increase; for iron utilization compared to the pyridine comparative compound: same mouse model, comparison in words with the comparative example
Protocol: The excellent Fe utilizations that can be accomplished through the Fe complexes according to the invention were measured by means of the following mouse model. Male NMRI (SPF) mice (approximately 3 weeks old) were fed a low-iron diet (approx. 5 ppm iron) for approximately 3 weeks. The iron complexes were then administered to them by means of a stomach tube (2 mg iron/kg body weight/day) for 2 times 5 days, with an interruption of 2 days (days 1-5 and 8-12). 6 mice were the control group (negative control) and were administered with water instead. Utilization on day 15 was calculated from the hemoglobin increase and the body weight increase in accordance with the formula [formula]

Tris-(3,5,6-trimethylpyrazine-2-ol-1-oxide)iron(III)-complex [Example 4]
Utilization n 15 d: 32 abs. %
iron utilization compared to the pyridine comparative compound: improved iron utilization

Tris-(3,6-dimethylpyrazine-2-ol-1-oxide)-iron(III)-complex [Example 10]
Utilization n 15 d: 58 abs. %
iron utilization compared to the pyridine comparative compound: improved iron utilization

Tris-(3-methylpyrazine-2-ol-1-oxide)iron(III)-complex [Example 3]
Utilization n 15 d: 77 abs. %
iron utilization compared to the pyridine comparative compound: improved iron utilization

Tris-(5,6-dimethyl pyrazine-2-ol 1-oxide)iron(III)-complex [Example 2]
Utilization n 15 d: 61 abs. %
iron utilization compared to the pyridine comparative compound: improved iron utilization

Tris-(5-methylpyrazine-2-ol-1-oxide)iron(III)-complex [Example 5]
Utilization n 15 d: 37 abs. %
iron utilization compared to the pyridine comparative compound: improved iron utilization

Tris-(pyrazine-2-ol 1-oxide)iron(III)-complex [Example 1]
Utilization n 15 d: 56 abs. %
iron utilization compared to the pyridine comparative compound: significantly improved iron utilization
